Laboratory results taken from PubChem BioAssay AID248 (DTP/NCI, 2004).
“And” between values parts separate entries of the source, which are not always exact repeats. Identical values can stand only once. Inconclusive results and toxic doses are left out. Cut-off read from the data, not from the text of the source: active = T/C of 150% or more; inactive = T/C below 125%.

Test system: L1210 leukemia ip in BDF1 mice, survival T/C
Experiment: NCI In Vivo Anticancer Drug Screen. Data for tumor model L1210 Leukemia (intraperitoneal) in B6D2F1 (BDF1) mice
Conditions: endpoint: mean survival time, higher = longer survival
Outline: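 Each compound was tested against a transplantable tumor grown in mice. The endpoint was survival, with treated animals benchmarked against vehicle controls as a simple ratio.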

[1] = dose: 100.0 mg/kg/injection, schedule: Q01DX009 (ip), vehicle: saline with Tween-80
[2] = dose: 100.0 mg/kg/injection, schedule: Q04DX002 (ip), vehicle: saline with Tween-80
[3] = dose: 100.0 mg/kg/injection, schedule: Q04DX003 (ip), vehicle: saline with Tween-80
[4] = dose: 200.0 mg/kg/injection, schedule: Q01DX009 (ip), vehicle: saline with Tween-80
[5] = dose: 200.0 mg/kg/injection, schedule: Q04DX002 (ip), vehicle: saline with Tween-80
[6] = dose: 200.0 mg/kg/injection, schedule: Q04DX003 (ip), vehicle: saline with Tween-80
[7] = dose: 400.0 mg/kg/injection, schedule: Q04DX002 (ip), vehicle: saline with Tween-80
[8] = dose: 400.0 mg/kg/injection, schedule: Q04DX003 (ip), vehicle: saline with Tween-80
[9] = dose: 100.0 mg/kg/injection, schedule: Q01DX009 (ip), vehicle: saline
[10] = dose: 200.0 mg/kg/injection, schedule: Q01DX009 (ip), vehicle: saline
[11] = dose: 100.0 mg/kg/injection, schedule: Q01DX009 (ip), vehicle: Klucel (hydroxypropylcellulose) (HPC)
[12] = dose: 200.0 mg/kg/injection, schedule: Q01DX009 (ip), vehicle: Klucel (hydroxypropylcellulose) (HPC)
[13] = dose: 100.0 mg/kg/injection, schedule: Q04DX003 (ip), vehicle: Klucel (hydroxypropylcellulose) (HPC)
[14] = dose: 200.0 mg/kg/injection, schedule: Q04DX003 (ip), vehicle: Klucel (hydroxypropylcellulose) (HPC)
[15] = dose: 400.0 mg/kg/injection, schedule: Q04DX003 (ip), vehicle: Klucel (hydroxypropylcellulose) (HPC)
[16] = dose: 50.0 mg/kg/injection, schedule: Q04DX003 (ip), vehicle: Klucel (hydroxypropylcellulose) (HPC)
[17] = dose: 25.0 mg/kg/injection, schedule: Q01DX009 (ip), vehicle: Klucel (hydroxypropylcellulose) (HPC)
[18] = dose: 50.0 mg/kg/injection, schedule: Q01DX009 (ip), vehicle: Klucel (hydroxypropylcellulose) (HPC)
[19] = dose: 100.0 mg/kg/injection, schedule: Q01DX001 (ip), vehicle: carboxymethylcellulose (CMC)
[20] = dose: 200.0 mg/kg/injection, schedule: Q01DX001 (ip), vehicle: carboxymethylcellulose (CMC)
[21] = dose: 400.0 mg/kg/injection, schedule: Q01DX001 (ip), vehicle: carboxymethylcellulose (CMC)
[22] = dose: 50.0 mg/kg/injection, schedule: Q01DX009 (ip), vehicle: saline with Tween-80
[23] = dose: 100.0 mg/kg/injection, schedule: Q01DX001 (ip), vehicle: saline
[24] = dose: 200.0 mg/kg/injection, schedule: Q01DX001 (ip), vehicle: saline
[25] = dose: 400.0 mg/kg/injection, schedule: Q01DX001 (ip), vehicle: saline

Measured: T/C

OC1(CCC2OCCO2)c2ccccc2-c2ccccc21
inactive: dose: 100.0 mg/kg/injection, schedule: Q01DX001 (ip), vehicle: saline with Tween-80 95 % of control | [1] 93 % of control | [2] 95 % of control and 100 % of control | [3] 96 % of control | dose: 200.0 mg/kg/injection, schedule: Q01DX001 (ip), vehicle: saline with Tween-80 90 % of control | [4] 96 % of control and 100 % of control | [5] 93 % of control and 102 % of control | [6] 96 % of control | dose: 400.0 mg/kg/injection, schedule: Q01DX001 (ip), vehicle: saline with Tween-80 93 % of control | dose: 400.0 mg/kg/injection, schedule: Q01DX009 (ip), vehicle: saline with Tween-80 96 % of control and 120 % of control | [7] 95 % of control | [8] 95 % of control

CCC(N)(CC)C(=O)O
inactive: dose: 50.0 mg/kg/injection, schedule: Q01DX009 (ip), vehicle: saline 102 % of control | [9] 98 % of control | [10] 95 % of control

c1ccc(N(CC2CO2)CC2CO2)cc1 (centres undefined)
inactive: [3] 106 % of control | [6] 104 % of control | [8] 112 % of control

CC(=O)OCC(=O)C12OC1CC1C3CCC4CC(O)CCC4(C)C3CC(=O)C12C (centres undefined)
inactive: dose: 6.0 mg/kg/injection, schedule: Q04DX002 (ip), vehicle: other 91 % of control | dose: 12.5 mg/kg/injection, schedule: Q04DX002 (ip), vehicle: other 106 % of control | dose: 25.0 mg/kg/injection, schedule: Q04DX002 (ip), vehicle: other 98 % of control | dose: 50.0 mg/kg/injection, schedule: Q04DX002 (ip), vehicle: other 98 % of control

COc1cc(C=Nc2ccc(C(=O)O)cc2)ccc1N(CCCl)CCCl
inactive: dose: 6.0 mg/kg/injection, schedule: Q01DX001 (ip), vehicle: carboxymethylcellulose (CMC) 107 % of control | dose: 12.0 mg/kg/injection, schedule: Q01DX015 (ip), vehicle: carboxymethylcellulose (CMC) 109 % of control | dose: 12.5 mg/kg/injection, schedule: Q01DX001 (ip), vehicle: carboxymethylcellulose (CMC) 112 % of control

CCOC(=O)CC(CC(=O)OCC)NC(=O)c1ccc(N(C)C=O)cc1
inactive: dose: 100.0 mg/kg/injection, schedule: Q01DX001 (ip), vehicle: other 100 % of control | dose: 200.0 mg/kg/injection, schedule: Q01DX001 (ip), vehicle: other 102 % of control | dose: 400.0 mg/kg/injection, schedule: Q01DX001 (ip), vehicle: other 97 % of control

O=S(=O)(O)c1cccc2nsnc12
inactive: [11] 107 % of control | [12] 109 % of control

COc1ccc(CC(N)C(=O)O)cc1 (centres undefined)
inactive: [11] 103 % of control | [13] 101 % of control | [12] 92 % of control | [14] 101 % of control | [15] 106 % of control

CCCCc1c(O)nc(NCCCC(N)C(=O)O)[nH]c1=O (centres undefined)
inactive: dose: 75.0 mg/kg/injection, schedule: Q01DX001 (ip), vehicle: saline 93 % of control | dose: 150.0 mg/kg/injection, schedule: Q01DX001 (ip), vehicle: saline 95 % of control | dose: 300.0 mg/kg/injection, schedule: Q01DX001 (ip), vehicle: saline 96 % of control

CC(C)(NC(=O)c1ccccc1)C(=O)O
inactive: [16] 106 % of control | [13] 96 % of control | [14] 88 % of control

CC(=O)OCCOc1ccc(Cl)cc1
inactive: dose: 100.0 mg/kg/injection, schedule: Q04DX002 (ip), vehicle: saline 107 % of control | dose: 200.0 mg/kg/injection, schedule: Q04DX002 (ip), vehicle: saline 96 % of control | dose: 400.0 mg/kg/injection, schedule: Q04DX002 (ip), vehicle: saline 107 % of control

CN(C)/N=C/c1ccc(N(C)C)cc1
inactive: [17] 100 % of control | dose: 25.0 mg/kg/injection, schedule: Q04DX003 (ip), vehicle: Klucel (hydroxypropylcellulose) (HPC) 101 % of control | [18] 112 % of control | [16] 96 % of control | [13] 111 % of control

NC(CSSCC(N)C(=O)O)C(=O)O (centres undefined)
inactive: [19] 95 % of control | [13] 93 % of control | [20] 94 % of control | [14] 93 % of control | [21] 95 % of control | [15] 91 % of control

CC(C)OC(=S)SSc1nc2ccccc2s1
inactive: [22] 103 % of control | [1] 92 % of control | [3] 90 % of control | [4] 96 % of control | [6] 96 % of control

COC(OC)c1[nH]c(=S)[nH]c(=O)c1Cc1ccccc1
inactive: dose: 25.0 mg/kg/injection, schedule: Q01DX009 (ip), vehicle: saline with Tween-80 98 % of control | [22] 96 % of control | [1] 98 % of control | [3] 102 % of control | [4] 86 % of control | [6] 96 % of control | [8] 94 % of control

COc1ccc(/C=C2\CSC(=O)NC2=O)cc1OC
inactive: [23] 104 % of control | [24] 106 % of control | [25] 106 % of control

O=C1c2ccc(Br)cc2-c2cc(Br)c([N+](=O)[O-])cc21
inactive: [19] 98 % of control | [20] 98 % of control | [21] 113 % of control

O=C(O)C(O)C(O)C(O)C(O)C(O)CO.[Cu+2] (centres undefined)
inactive: dose: 30.0 mg/kg/injection, schedule: Q01DX001 (ip), vehicle: saline 91 % of control

Cc1coc2c1CC1(C)C(CCC(O)C1C)C2 (centres undefined)
inactive: [23] 97 % of control | [24] 100 % of control | [25] 103 % of control

O=C(Nc1ccc(Cl)cc1)Nc1ccccc1Cl
inactive: dose: 100.0 mg/kg/injection, schedule: Q01DX009 (ip), vehicle: gum acacia 91 % of control | dose: 100.0 mg/kg/injection, schedule: Q04DX003 (ip), vehicle: gum acacia 100 % of control | dose: 200.0 mg/kg/injection, schedule: Q01DX009 (ip), vehicle: gum acacia 87 % of control | dose: 200.0 mg/kg/injection, schedule: Q04DX003 (ip), vehicle: gum acacia 96 % of control | dose: 400.0 mg/kg/injection, schedule: Q01DX009 (ip), vehicle: gum acacia 89 % of control | dose: 400.0 mg/kg/injection, schedule: Q04DX003 (ip), vehicle: gum acacia 102 % of control

COc1ccc(/C=C/C2=CC(=O)CC(c3ccc(OC)c(OC)c3)C2)cc1OC (centres undefined)
inactive: [2] 102 % of control | [5] 102 % of control | [7] 105 % of control

CCC(=O)C(CCN(C)C)(c1ccccc1)c1ccccn1 (centres undefined)
inactive: dose: 44.0 mg/kg/injection, schedule: Q01DX Z (ip), vehicle: saline 98 % of control | dose: 66.0 mg/kg/injection, schedule: Q01DX Z (ip), vehicle: saline 104 % of control

CCOC(=O)CCN1CCOCC1
inactive: [9] 100 % of control | dose: 100.0 mg/kg/injection, schedule: Q04DX003 (ip), vehicle: saline 111 % of control | [10] 101 % of control | dose: 200.0 mg/kg/injection, schedule: Q04DX003 (ip), vehicle: saline 101 % of control | dose: 400.0 mg/kg/injection, schedule: Q01DX009 (ip), vehicle: saline 111 % of control | dose: 400.0 mg/kg/injection, schedule: Q04DX003 (ip), vehicle: saline 101 % of control

CC1C(=O)OC(C)(C)OC1=O
inactive: [17] 99 % of control | [18] 100 % of control | [11] 98 % of control | [12] 94 % of control | dose: 400.0 mg/kg/injection, schedule: Q01DX009 (ip), vehicle: Klucel (hydroxypropylcellulose) (HPC) 103 % of control
